Measured values from patent US6472391B2, “Nitrogen-containing heterocyclic compounds” (Millennium Pharmaceuticals, Inc., priority 1996, dated 2002).

SMILES | melting point
O=C(Nc1ccc(Oc2ccccc2)cc1)N1CCN(c2nnc(Cc3ccccc3)c3ccccc23)CC1 [Compound 418, 4-(4-Benzyl-1-phthalazinyl)-N-(4-phenoxyphenyl)-1-piperazinecarboxamide] | 100 to 101 °C
COc1cccc(CNC(=S)N2CCN(c3ncnc4cc(OC)c(OC)cc34)CC2)c1 [Compound 197, 4-(6,7-Dimethoxy-4-quinazolinyl)-N-(3-methoxybenzyl)-1-piperazinethiocarboxamide] | 146 to 147 °C
CCOC(=O)c1cccc(NC(=O)N2CCN(c3ncnc4cc(OC)c(OC)cc34)CC2)c1 [Compound 248, 4-(6,7-Dimethoxy-4-quinazolinyl)-N-(3-ethoxycarbonylphenyl)-1-piperazinecarboxamide] | 187 to 188 °C
COc1cc2ncnc(N3CCN(C(=O)Nc4cccnc4)CC3)c2cc1OC [Compound 265, 4-(6,7-Dimethoxy-4-quinazolinyl)-N-(3-pyridyl)-1-piperazinecarboxamide] | 208 to 209 °C
COc1cc2ncnc(N3CCN(C(=O)Nc4cccc5ccccc45)CC3)c2cc1OC [Compound 8, 4-(6,7-Dimethoxy-4-quinazolinyl)-N-(1-naphthyl)-1-piperazinecarboxamide] | 254 to 256 °C
COc1cc2ncnc(N3CCN(C(=O)Nc4ccc(C(C)=O)cc4)CC3)c2cc1OC [Compound 87, N-(4-acetylphenyl)-4-(6,7-dimethoxy-4-quinazolinyl)-1-piperazinecarboxamide] | 220 to 222 °C
COc1cc2ncnc(N3CCN(C(=S)NCc4ccc(C(C)(C)C)cc4)CC3)c2cc1OC [Compound 157, N-(4-tert-Butylbenzyl)-4-(6,7-dimethoxy-4-quinazolinyl)-1-piperazinethiocarboxamide] | 104 to 105 °C
COc1cc2ncnc(N3CCN(C(=S)N[C@H](C)c4ccccc4)CC3)c2cc1OC [Compound 130, (R)-4-(6,7-Dimethoxy-4-quinazolinyl)-N-(1-phenylethyl)-1-piperazinethiocarboxamide] | 99 to 101 °C
CCCCOC(=O)c1ccc(NC(=O)N2CCN(c3ncnc4cc(OC)c(OC)cc34)CC2)cc1 [Compound 90, N-(4-Butoxycarbonylphenyl)-4-(6,7-dimethoxy-4-quinazolinyl)-1-piperazinecarboxamide] | 226 to 227 °C
COc1cc2ncnc(N3CCN(C(=S)NCc4ccc(F)cc4)CC3)c2cc1OC [Compound 173, 4-(6,7-Dimethoxy-4-quinazolinyl)-N-(4-fluorobenzyl)-1-piperazinethiocarboxamide] | 217 to 218 °C
COc1cc2ncnc(N3CCN(C(=S)NCc4ccco4)CC3)c2cc1OC [Compound 94, 4-(6,7-Dimethoxy-4-quinazolinyl)-N-furfuryl-1-piperazinethiocarboxamide] | 189 to 190 °C
COc1cc2ncnc(N3CCN(C(=S)Nc4cccc(Br)c4)CC3)c2cc1OC [Compound 181, N-(3-Bromophenyl)-4-(6,7-dimethoxy-4-quinazolinyl)-1-piperazinethiocarboxamide] | 220 to 222 °C
O=C(Nc1ccc(Oc2ccccc2)cc1)N1CCN(c2ccnc3c(Cl)cccc23)CC1 [Compound 412, 4-(8-Chloro-4-quinolyl)-N-(4-phenoxyphenyl)-1-piperazinecarboxamide] | 174 to 175 °C
O=C(Nc1ccc(Oc2ccccc2)cc1)N1CCN(c2ccnc3ccc(Cl)cc23)CC1 [Compound 399, 4-(6-Chloro-4-quinolyl)-N-(4-phenoxyphenyl)-1-piperazinecarboxamide] | 188 to 189 °C
O=[N+]([O-])c1cc2c(N3CCN(C(=S)NCc4ccccc4)CC3)ncnc2cc1Cl [Compound 358, N-Benzyl-4-(7-chloro-6-nitro-4-quinazolinyl)-1-piperazinethiocarboxamide] | 93 to 95 °C
S=C(NCc1ccccc1)N1CCN(c2ncnc3cc4c(cc23)OCCO4)CC1 [Compound 374, N-Benzyl-4-(6,7-ethylenedioxy-4-quinazolinyl)-1-piperazinethiocarboxamide] | 103 to 105 °C
COc1cc2ncnc(N3CCN(C(=O)Nc4ccc(C(F)(F)F)cc4)CC3)c2cc1OC [Compound 23, 4-(6,7-Dimethoxy-4-quinazolinyl)-N-[4-(trifluoromethyl)phenyl]-1-piperazinecarboxamide] | 227 to 230 °C
COc1cc2ncnc(N3CCN(C(=O)N(c4ccccc4)c4ccccc4)CC3)c2cc1OC [Compound 116, 4-(6,7-Dimethoxy-4-quinazolinyl)-N,N-diphenyl-1-piperazinecarboxamide] | 196 to 197 °C
O=C(Nc1ccc(Oc2ccccc2)cc1)N1CCN(c2cc(C(F)(F)F)nc3ccccc23)CC1 [Compound 397, N-(4-Phenoxyphenyl)-4-(2-trifluoromethyl-4-quinolyl)-1-piperazinecarboxamide] | 203 to 204 °C

Now from value to compound:

melting point | SMILES
208 to 209 °C | CCOc1cc2c(N3CCN(C(=S)NCc4cccnc4)CC3)ncnc2cc1OC [Compound 349, 4-(6-Ethoxy-7-methoxy-4-quinazolinyl)-N-(3-picolyl)-1-piperazinethiocarboxamide]
231 to 233 °C | COc1cc2ncnc(N3CCN(C(=O)Nc4ccc(SC)cc4)CC3)c2cc1OC [Compound 69, 4-(6,7-dimethoxy-4-quinazolinyl)-N-(4-methylthiophenyl)-1-piperazinecarboxamide]
240 to 241 °C | COc1cc(NC(=S)N2CCN(c3ncnc4cc(OC)c(OC)cc34)CC2)cc(OC)c1 [Compound 67, N-(3,5-Dimethoxyphenyl)-4-(6,7-dimethoxy-4-quinazolinyl)-1-piperazinethiocarboxamide]
252 to 253 °C | COC(=O)c1cc(NC(=O)N2CCN(c3ncnc4cc(OC)c(OC)cc34)CC2)cc(C(=O)OC)c1 [Compound 91, N-[3,5-Bis(methoxycarbonyl)phenyl]-4-(6,7-dimethoxy-4-quinazolinyl)-1-piperazinecarboxamide]
126 to 129 °C | Cc1ccc2ncnc(N3CCN(C(=O)Nc4ccc([N+](=O)[O-])cc4)CC3)c2c1 [Compound 293, 4-(6-Methyl-4-quinazolinyl)-N-(4-nitrophenyl)-1-piperazinecarboxamide]
145 to 146 °C | O=C(Nc1ccc(Oc2ccccc2)cc1)N1CCN(c2ccnc3ccccc23)CC1 [Compound 394, N-(4-Phenoxyphenyl)-4-(4-quinolyl)-1-piperazinecarboxamide]
175 to 176 °C | COc1cc2ncnc(N3CCN(C(=S)NCc4ccccc4Cl)CC3)c2cc1OC [Compound 176, N-(2-Chlorobenzyl)-4-(6,7-dimethoxy-4-quinazolinyl)-1-piperazinethiocarboxamide]
109 to 110 °C | COc1cc(OC)c2ncnc(N3CCN(C(=O)Nc4ccc(Oc5ccccc5)cc4)CC3)c2c1 [Compound 381, 4-(6,8-Dimethoxy-4-quinazolinyl)-N-(4-phenoxyphenyl)-1-piperazinecarboxamide]
176 to 177 °C | S=C(NCc1ccccc1)N1CCN(c2ncnc3cc4c(cc23)OCO4)CC1 [Compound 370, N-Benzyl-4-(6,7-methylenedioxy-4-quinazolinyl)-1-piperazinethiocarboxamide]
165 to 166 °C | CCOc1ccc(NC(=O)N2CCN(c3ncnc4cc(OC)c(OC)cc34)CC2)cc1 [Compound 57, 4-(6,7-Dimethoxy-4-quinazolinyl)-N-(4-ethoxyphenyl)-1-piperazinecarboxamide]
189 to 190 °C | COc1ccc2c(N3CCN(C(=O)Nc4ccc(Oc5ccccc5)cc4)CC3)ncnc2c1OC [Compound 383, 4-(7,8-Dimethoxy-4-quinazolinyl)-N-(4-phenoxyphenyl)-1-piperazinecarboxamide]
215 to 217 °C | COc1ccc(OC)c(NC(=O)N2CCN(c3ncnc4cc(OC)c(OC)cc34)CC2)c1 [Compound 65, N-(2,5-Dimethoxyphenyl)-4-(6,7-Dimethoxy-4-quinazolinyl)-1-piperazinecarboxamide]
100 to 102 °C | COc1cc2ncnc(N3CCN(C(=S)NCc4cccc(F)c4)CC3)c2cc1OC [Compound 171, 4-(6,7-Dimethoxy-4-quinazolinyl)-N-(3-fluorobenzyl)-1-piperazinethiocarboxamide]
122 to 123 °C | O=C(Nc1ccc(Oc2ccccc2)cc1)N1CCN(c2nccc3ccccc23)CC1 [Compound 422, 4-(1-Isoquinolyl)-N-(4-phenoxyphenyl)-1-piperazinecarboxamide]
182 to 185 °C | COc1cc2ncnc(N3CCN(C(=O)Nc4ccc(CNCc5ccncc5)cc4)CC3)c2cc1OC.Cl.Cl.Cl
225 to 228 °C | COc1cc2ncnc(N3CCN(C(=O)Nc4ccc(C)cc4)CC3)c2cc1OC [Compound 17, 4-(6,7-Dimethoxy-4-quinazolinyl)-N-(4-tolyl)-1-piperazinecarboxamide]
243 to 245 °C | COc1cc2ncnc(N3CCN(C(=O)Nc4ccc(F)c([N+](=O)[O-])c4)CC3)c2cc1OC [Compound 81, 4-(6,7-Dimethoxy-4-quinazolinyl)-N-(4-fluoro-3-nitrophenyl)-1-piperazinecarboxamide]
238 to 242 °C | COc1cc2ncnc(N3CCN(C(=O)Nc4ccc(I)cc4)CC3)c2cc1OC [Compound 46, 4-(6,7-Dimethoxy-4-quinazolinyl)-N-(4-iodophenyl)-1-piperazinecarboxamide]
174 to 175 °C | CCOC(=O)c1cnc2cc(OC)c(OC)cc2c1N1CCN(C(=S)NCc2ccccc2)CC1 [Compound 409, N-Benzyl-4-(6,7-dimethoxy-3-ethoxycarbonyl-4-quinolyl)-1-piperazinethiocarboxamide]
150 to 152 °C | Cl.Cl.S=C(NCc1cccnc1)N1CCN(c2ncnc3cccc(Cl)c23)CC1
186 to 187 °C | CCOc1cc2ncnc(N3CCN(C(=O)Nc4ccc(C#N)cc4)CC3)c2cc1OCC [Compound 352, N-(4-Cyanophenyl)-4-(6,7-diethoxy-4-quinazolinyl)-1-piperazinecarboxamide]
172 to 173 °C | CCn1c(=O)n(CC)c2cc3c(N4CCN(C(=O)Nc5ccc(Oc6ccccc6)cc5)CC4)nnc(Cl)c3cc21 [Compound 421, 4-(5-Chloro-1,3-diethyl-1,3-dihydro-2-oxo-2H-imidazo[4,5-g]phthalazin-8-yl)-N-(4-phenoxyphenyl)-1-piperazinecarboxamide]
